Key:
[1] = target: T1, Sulfide:quinone oxidoreductase, mitochondrial (Homo sapiens, UniProt Q9Y6N5); assay: Inhibition of SQOR (unknown origin) at 10 uM using sodium sulfide, sodium sulfite and coenzyme Q1 by UV absorbance method relative to control
Target sequence in this assay (Q9Y6N5 whole entry, looked up): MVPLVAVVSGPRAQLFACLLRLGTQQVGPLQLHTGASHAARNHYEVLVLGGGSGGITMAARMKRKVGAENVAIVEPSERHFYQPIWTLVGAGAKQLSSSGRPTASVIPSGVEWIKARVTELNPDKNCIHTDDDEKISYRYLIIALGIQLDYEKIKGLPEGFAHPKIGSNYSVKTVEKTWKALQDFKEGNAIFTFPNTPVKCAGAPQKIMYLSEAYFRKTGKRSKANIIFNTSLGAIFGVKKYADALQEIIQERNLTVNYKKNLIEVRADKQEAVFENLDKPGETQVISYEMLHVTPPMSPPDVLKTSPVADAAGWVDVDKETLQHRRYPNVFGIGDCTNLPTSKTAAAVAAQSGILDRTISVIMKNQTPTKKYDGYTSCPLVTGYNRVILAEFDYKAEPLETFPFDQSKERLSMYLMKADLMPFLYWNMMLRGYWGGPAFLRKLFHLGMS

[2] = target: T1, Sulfide:quinone oxidoreductase, mitochondrial; assay: Inhibition of SQOR (unknown origin) using sodium sulfide, sodium sulfite and coenzyme Q1 by UV absorbance method
Target sequence in this assay (Q9Y6N5 whole entry): as the sequence (Q9Y6N5 whole entry, looked up) above

Molecule: CCCCCCC(=O)n1cc(F)c(=O)n(C)c1=O
- inhibition [1]: 10 to 50%

Molecule: CCCCCn1c(Cl)cc(=O)n(CCCCC)c1=O
- inhibition [1]: 10 to 50%

Molecule: O=C(NCc1ccccc1)n1cc(F)c(=O)[nH]c1=O
- inhibition [1]: 10 to 50%

Molecule: CCCCCCCC(=O)n1c(Cl)cc(=O)[nH]c1=O
- IC50 [2]: < 20 µM
- inhibition [1]: 10 to 50%

Molecule: AUROTHIOGLUCOSE [listing 1 of 2 here]
- inhibition [1]: 95 to 100%

Molecule: CCCCCn1c(C)c(F)c(=O)n(CCCCC)c1=O
- IC50 [2]: < 20 µM
- inhibition [1]: > 50%

Molecule: CCCCCC(=O)n1nc(Br)c(=O)[nH]c1=O
- IC50 [2]: < 20 µM
- inhibition [1]: 10 to 50%

Molecule: CCCCCCCC(=O)n1nc(C)c(=O)[nH]c1=O
- IC50 [2]: 20 to 100 µM
- inhibition [1]: 10 to 50%

Molecule: CCCCCCCCCC(=O)n1nc(Br)c(=O)[nH]c1=O
- IC50 [2]: 100 to 500 µM
- inhibition [1]: > 50%

Molecule: O=C(NCCc1ccccc1)n1cc(F)c(=O)[nH]c1=O
- inhibition [1]: 7%

Molecule: CCCCCCCC(=O)n1nc(Br)c(=O)[nH]c1=O
- IC50 [2]: < 20 µM
- inhibition [1]: > 50%

Molecule: CCCCCCCC(=O)n1c(I)cc(=O)[nH]c1=O
- IC50 [2]: < 20 µM
- inhibition [1]: 10 to 50%

Molecule: CCCCCCCC(=O)n1c(C)c(Br)c(=O)[nH]c1=O
- IC50 [2]: < 20 µM
- inhibition [1]: 10 to 50%

Molecule: CCCCCCCC(=O)n1cc(F)c(=O)[nH]c1=O
- inhibition [1]: 3%

Molecule: CCCCCCCCCCCCCC(=O)n1nc(Br)c(=O)[nH]c1=O
- inhibition [1]: > 50%

Molecule: CCCCCCCn1cc(F)c(=O)n(CCCCCCC)c1=O
- IC50 [2]: < 20 µM
- inhibition [1]: > 50%

Molecule: CCCCCCCCn1cc(F)c(=O)n(CCCCCCCC)c1=O
- IC50 [2]: < 20 µM
- inhibition [1]: 10 to 50%

Molecule: CCCCCCCC(=O)n1cc(Cl)c(=O)[nH]c1=O
- inhibition [1]: 10 to 50%

Molecule: CCCCCCCCNC(=O)n1cc(F)c(=O)[nH]c1=O
- IC50 [2]: < 20 µM
- inhibition [1]: 10 to 50%

Molecule: CCCCCCCC(=O)n1cc(Br)c(=O)[nH]c1=O
- IC50 [2]: 20 to 100 µM
- inhibition [1]: 10 to 50%

Molecule: CCCCCCNC(=O)n1cc(F)c(=O)[nH]c1=O [CARMOFUR]
- IC50 [2]: 20 to 100 µM
- inhibition [1]: 10 to 50%

Molecule: O=C(CCC1CCCC1)n1nc(Br)c(=O)[nH]c1=O
- IC50 [2]: < 20 µM
- inhibition [1]: > 50%

Molecule: O=C(CC1CCCCC1)n1nc(Br)c(=O)[nH]c1=O
- IC50 [2]: < 20 µM
- inhibition [1]: > 50%

Molecule: CCCCCCn1cc(F)c(=O)n(CCCCCC)c1=O
- IC50 [2]: < 20 µM
- inhibition [1]: > 50%

Molecule: CCCCCn1cc(F)c(=O)n(CCCCC)c1=O
- IC50 [2]: < 20 µM
- inhibition [1]: > 50%

Molecule: O=C(C1CCCCC1)n1nc(Br)c(=O)[nH]c1=O
- IC50 [2]: < 20 µM
- inhibition [1]: > 50%

Molecule: CC(C)CCCn1cc(F)c(=O)n(CCCC(C)C)c1=O
- inhibition [1]: 10 to 50%

Molecule: CCCNC(=O)n1cc(F)c(=O)[nH]c1=O
- inhibition [1]: 6%

Molecule: CCCCCCCCCCCC(=O)n1nc(Br)c(=O)[nH]c1=O
- inhibition [1]: > 50%

Molecule: O=c1c(F)cn(CCc2ccccc2)c(=O)n1CCc1ccccc1
- inhibition [1]: 10 to 50%

Molecule: AUROTHIOGLUCOSE [listing 2 of 2 here]
- IC50 [2]: 0.925 to 0.93 µM
- pIC50 [2]: 6.034

Molecule: CC(C)C(=O)n1nc(Br)c(=O)[nH]c1=O
- inhibition [1]: 10 to 50%

Molecule: O=c1c(F)cn(CCC2CCCCC2)c(=O)n1CCC1CCCCC1
- inhibition [1]: 10 to 50%

Molecule: O=C(c1ccccc1)n1nc(Br)c(=O)[nH]c1=O
- inhibition [1]: 10 to 50%

Molecule: CCCCCCCCNC(=O)n1cc(Cl)c(=O)[nH]c1=O
- IC50 [2]: < 20 µM
- inhibition [1]: > 50%

Molecule: CCCCCCCCn1c(C)c(F)c(=O)n(CCCCCCCC)c1=O
- IC50 [2]: < 20 µM
- inhibition [1]: 10 to 50%

— ChEMBL document CHEMBL4418305, “Alkyl-, acyl-, urea-, and aza-uracil sulfide:quinone oxidoreductase inhibitors” (2017)
